Assay results: publication PMC9421656, “Beyond Retigabine: Design, Synthesis, and Pharmacological Characterization of a Potent and Chemically Stable Neuronal Kv7 Channel Activator with Anticonvulsant Activity” (Journal of Medicinal Chemistry, 2022)
Read-outs that look alike come from different tables or passages of the source.

Assays:
[1] = in vivo
Method: The animals were sacrificed after 60 min, and brain and blood were collected.
For the assessment of plasmatic concentration, 20 μL of plasma was treated with 100 μL of methanol in a test tube. The tube was vortexed for 30 s. Then, the sample was centrifuged for 10 min at 14680 rpm, at 4 °C. 90 μL of supernatant was dried under nitrogen, reconstituted in 150 μL of MeOH, and then injected into the UHPLC–MS/MS.
Frozen brain tissues were lyophilized overnight, then weighed, carefully homogenized, and extracted with methanol in a 10 mg:[…] tissue:solvent ratio. The samples were vortexed for 30 s, treated in an ultrasonic bath for 5 min, and then centrifuged for 10 min at 14680 rpm, at 4 °C.
Returning to 40% B in 0.10 min.
The ESI was operated in positive mode.

[2] = in vivo; conditions: Sprague-Dawley, rat, ip, 0.3 mg/kg
Method: The drug half-lives were calculated using GraphPad Prism 8.0.2 (GraphPad Software, LaJolla, CA).
Returning to 40% B in 0.10 min. The flow rate was set at 0.5 mL/min. The column oven was set at 45 °C, and 5 μL of extract was injected. All additives and mobile phases were LCMS-grade and purchased from Merck (Milan, Italy).
The ESI was operated in positive mode. […] Interface temperature, desolvation line temperature, and heat block temperature were set, respectively, to 250, 250, and 350 °C. Nebulizing, drying (N2), and heating gas (air) were set, respectively, to 3, 10, and 10 L/min.

[3] = molecular target: Kv7.2/Kv7.3 channels (Homo sapiens, UniProt O43525+O43526); test: Whole-cell patch-clamp electrophysiology in CHO cells expressing Kv7.2/Kv7.3; assay type: cell-based; set-up: expressed in transfected cells; host or cells: CHO cells, transient transfection (pcDNA3.1, Lipofectamine 2000); conditions: for EC50: dose-response 0.01–30 μM
Method: Channel subunits were expressed in Chinese hamster ovary (CHO) cells by transient transfection, using plasmids containing cDNAs encoding human Kv7.2 and/or Kv7.3, all cloned in the pcDNA3.1 vector. According to the experimental protocol, these plasmids were expressed individually or in combination, together with a plasmid-expressing enhanced green fluorescent protein (Clontech, Palo Alto, CA) used as a transfection marker. Total cDNA in the transfection mixture was kept at 4 μg. CHO cells were grown in 100 mm plastic Petri dishes in Dulbecco’s modified Eagle’s medium containing 10% fetal bovine serum, nonessential amino acids (0.1 mM), penicillin (50 U/mL), and streptomycin ([…]) in a humidified atmosphere at 37 °C with 5% CO2.
Currents from CHO cells were recorded at room temperature (20–22 °C) using the whole-cell configuration of the patch-clamp technique, with glass micropipettes of 3–5 MΩ resistance. During the recording, constant perfusion of extracellular solution was maintained. […] The pipette (intracellular) solution contained (in mM): 140 KCl, 2 MgCl2, 10 EGTA, 10 HEPES, 5 Mg^2+-ATP, at pH 7.3–7.4, with KOH. […] To evaluate the activity of each compound on Kv7.2 + Kv7.3 currents, the cells were clamped at −80 mV and conductance–voltage curves (G/V curves; activation curves) were generated by normalizing to the maximal value of the instantaneous isopotential currents at 0 mV and expressing the normalized values as a function of the preceding voltages. Data were fit to a Boltzmann distribution of the following form: y = max/[1 + exp (V1/2 – V)/k], where V is the test potential, V1/2 is the half-activation potential, and k is the slope factor.
Indicated EC50 values are the mean of at least three independent experiments ± standard error of the mean (SEM).
Statistically significant differences in electrophysiological data were evaluated with the Student t test or with ANOVA followed by the Student–Newman–Keuls test when multiple groups were compared, with the threshold set at p < 0.05. […] Values are expressed as the […] mean ± standard error of the mean (SEM) of at least three cells recorded in at least three independent transfections.

`CC(C)(C)CC(=O)Nc1ccc(NCc2ccc(C(F)(F)F)cc2)c(F)c1N` [compound 60, N-(2-Amino-3-fluoro-4-((4-(trifluoromethyl)benzyl)amino)phenyl)-3,3-dimethylbutanamide] showed a Kp at 1 h ([1]; male, C57Bl/6, mouse, in vivo, ip, 1 mg/kg) of 40.4, a concentration at 60 min ([1]; male, C57Bl/6, mouse, in vivo, ip, 1 mg/kg, Brain concentration) of 727000 ± 179000 ng/g and a concentration at 60 min ([1]; male, C57Bl/6, mouse, in vivo, ip, 1 mg/kg, Plasma concentration) of 18200 ± 3700 ng/g. For the same molecule, the “Brain/plasma ratio higher than that of retigabine” value ([1]; mice, 1 mg/kg i.p., 60 min) was 18 times, the concentration at 0.5 h [2] was 9 ng/mL and the concentration at 2 h [2] was 8.7 ng/mL. For the same molecule, the concentration at 4 h [2] was 6.8 ng/mL, the concentration at 8 h [2] was 5.4 ng/mL and the concentration at 24 h [2] was 0 ng/mL. For the same molecule, the half-life [2] was 16.9 h, the “Potency relative to RL-81” value [3] was “about twice more potent than RL-81” and the “Leftward shift in V1/2 (ΔV1/2)” value ([3]; 1 μM) was about 50 mV. For the same molecule, the “Idrug/Icontrol (maximal current density)” value ([3]; calculated at +20 mV) was 2.1 ± 0.3, the EC50 ([3]; current at +20 mV, read-out: Maximal currents EC50) was 60 ± 10 nM and the EC50 ([3]; read-out: ΔV1/2 EC50) was 150 ± 30 nM. For the same molecule, the “Potency over retigabine as Kv7.2/Kv7.3 activator (fold/times)” value ([3]; from ΔV1/2 EC50) was 16.
